# Laboratory results from the NIST ThermoML archive (doi:10.1016/j.jct.2011.05.018).
# ± gives the expanded uncertainty stated by the source.
# Assay: xn = mol fraction of the nth substance listed
# Conditions: 101 kPa, Liquid; for viscosity: Capillary tube (Ostwald / Ubbelohde) method; for speed of sound: Pulse-echo method; for mass density: Pycnometric method
structure (smiles),measurement,setting,value
COc1ccc(C=O)cc1 [4-methoxybenzaldehyde] + Cc1ccccc1O,viscosity,"303.15 K, x1 = 0.0875",7.163 ± 0.051 mPa·s
same,viscosity,"303.15 K, x1 = 0.1774",6.824 ± 0.049 mPa·s
same,viscosity,"303.15 K, x1 = 0.2699",6.519 ± 0.047 mPa·s
same,viscosity,"303.15 K, x1 = 0.3651",6.202 ± 0.045 mPa·s
same,viscosity,"303.15 K, x1 = 0.4631",5.778 ± 0.042 mPa·s
same,viscosity,"303.15 K, x1 = 0.564",5.319 ± 0.039 mPa·s
same,viscosity,"303.15 K, x1 = 0.668",4.811 ± 0.036 mPa·s
same,viscosity,"303.15 K, x1 = 0.7753",4.261 ± 0.032 mPa·s
same,viscosity,"303.15 K, x1 = 0.8859",3.758 ± 0.028 mPa·s
same,viscosity,"303.15 K, x1 = 1",3.251 ± 0.024 mPa·s
same,speed of sound,"303.15 K, x1 = 0.0875",1507.7 ± 1.6 m/s
same,speed of sound,"303.15 K, x1 = 0.1774",1526.3 ± 1.6 m/s
same,speed of sound,"303.15 K, x1 = 0.2699",1545.5 ± 1.6 m/s
same,speed of sound,"303.15 K, x1 = 0.3651",1565 ± 1.6 m/s
same,speed of sound,"303.15 K, x1 = 0.4631",1585.2 ± 1.6 m/s
same,speed of sound,"303.15 K, x1 = 0.564",1611.2 ± 1.6 m/s
same,speed of sound,"303.15 K, x1 = 0.668",1637 ± 1.6 m/s
same,speed of sound,"303.15 K, x1 = 0.7753",1658.9 ± 1.6 m/s
same,speed of sound,"303.15 K, x1 = 0.8859",1681.5 ± 1.6 m/s
same,speed of sound,"303.15 K, x1 = 1",1694.3 ± 1.6 m/s
same,mass density,"303.15 K, x1 = 0.0875",1039.2 ± 10 kg/m3
same,mass density,"303.15 K, x1 = 0.1774",1044.2 ± 10 kg/m3
same,mass density,"303.15 K, x1 = 0.2699",1050.1 ± 10 kg/m3
same,mass density,"303.15 K, x1 = 0.3651",1058.5 ± 11 kg/m3
same,mass density,"303.15 K, x1 = 0.4631",1067.1 ± 11 kg/m3
same,mass density,"303.15 K, x1 = 0.564",1074.3 ± 11 kg/m3
same,mass density,"303.15 K, x1 = 0.668",1081.3 ± 11 kg/m3
same,mass density,"303.15 K, x1 = 0.7753",1093.2 ± 11 kg/m3
same,mass density,"303.15 K, x1 = 0.8859",1106.6 ± 11 kg/m3
same,mass density,"303.15 K, x1 = 1",1125.2 ± 11 kg/m3
same,viscosity,"308.15 K, x1 = 0.0875",5.762 ± 0.042 mPa·s
same,viscosity,"308.15 K, x1 = 0.1774",5.54 ± 0.041 mPa·s
same,viscosity,"308.15 K, x1 = 0.2699",5.361 ± 0.04 mPa·s
same,viscosity,"308.15 K, x1 = 0.3651",5.168 ± 0.038 mPa·s
same,viscosity,"308.15 K, x1 = 0.4631",4.874 ± 0.036 mPa·s
same,viscosity,"308.15 K, x1 = 0.564",4.56 ± 0.034 mPa·s
same,viscosity,"308.15 K, x1 = 0.668",4.196 ± 0.031 mPa·s
same,viscosity,"308.15 K, x1 = 0.7753",3.815 ± 0.029 mPa·s
same,viscosity,"308.15 K, x1 = 0.8859",3.475 ± 0.026 mPa·s
same,viscosity,"308.15 K, x1 = 1",3.131 ± 0.023 mPa·s
same,speed of sound,"308.15 K, x1 = 0.0875",1488.3 ± 1.6 m/s
same,speed of sound,"308.15 K, x1 = 0.1774",1506.2 ± 1.6 m/s
same,speed of sound,"308.15 K, x1 = 0.2699",1524.9 ± 1.6 m/s
same,speed of sound,"308.15 K, x1 = 0.3651",1544.2 ± 1.6 m/s
same,speed of sound,"308.15 K, x1 = 0.4631",1564 ± 1.6 m/s
same,speed of sound,"308.15 K, x1 = 0.564",1589.4 ± 1.6 m/s
same,speed of sound,"308.15 K, x1 = 0.668",1613.8 ± 1.6 m/s
same,speed of sound,"308.15 K, x1 = 0.7753",1635.2 ± 1.6 m/s
same,speed of sound,"308.15 K, x1 = 0.8859",1657.2 ± 1.6 m/s
same,speed of sound,"308.15 K, x1 = 1",1670.7 ± 1.6 m/s
same,mass density,"308.15 K, x1 = 0.0875",1033.8 ± 10 kg/m3
same,mass density,"308.15 K, x1 = 0.1774",1038.2 ± 10 kg/m3
same,mass density,"308.15 K, x1 = 0.2699",1043.4 ± 10 kg/m3
same,mass density,"308.15 K, x1 = 0.3651",1050.6 ± 10 kg/m3
same,mass density,"308.15 K, x1 = 0.4631",1058.4 ± 11 kg/m3
same,mass density,"308.15 K, x1 = 0.564",1065 ± 11 kg/m3
same,mass density,"308.15 K, x1 = 0.668",1071.5 ± 11 kg/m3
same,mass density,"308.15 K, x1 = 0.7753",1082.8 ± 11 kg/m3
same,mass density,"308.15 K, x1 = 0.8859",1095.3 ± 11 kg/m3
same,mass density,"308.15 K, x1 = 1",1111.6 ± 11 kg/m3
same,viscosity,"313.15 K, x1 = 0.0875",4.162 ± 0.032 mPa·s
same,viscosity,"313.15 K, x1 = 0.1774",4.072 ± 0.031 mPa·s
same,viscosity,"313.15 K, x1 = 0.2699",4.007 ± 0.03 mPa·s
same,viscosity,"313.15 K, x1 = 0.3651",3.936 ± 0.03 mPa·s
same,viscosity,"313.15 K, x1 = 0.4631",3.806 ± 0.029 mPa·s
same,viscosity,"313.15 K, x1 = 0.564",3.673 ± 0.028 mPa·s
same,viscosity,"313.15 K, x1 = 0.668",3.494 ± 0.026 mPa·s
same,viscosity,"313.15 K, x1 = 0.7753",3.291 ± 0.025 mPa·s
same,viscosity,"313.15 K, x1 = 0.8859",3.126 ± 0.024 mPa·s
same,viscosity,"313.15 K, x1 = 1",2.961 ± 0.022 mPa·s
same,speed of sound,"313.15 K, x1 = 0.0875",1470.7 ± 1.6 m/s
same,speed of sound,"313.15 K, x1 = 0.1774",1486.3 ± 1.6 m/s
same,speed of sound,"313.15 K, x1 = 0.2699",1502.6 ± 1.6 m/s
same,speed of sound,"313.15 K, x1 = 0.3651",1519.6 ± 1.6 m/s
same,speed of sound,"313.15 K, x1 = 0.4631",1536.9 ± 1.6 m/s
same,speed of sound,"313.15 K, x1 = 0.564",1560.3 ± 1.6 m/s
same,speed of sound,"313.15 K, x1 = 0.668",1580 ± 1.6 m/s
same,speed of sound,"313.15 K, x1 = 0.7753",1598.1 ± 1.6 m/s
same,speed of sound,"313.15 K, x1 = 0.8859",1617.6 ± 1.6 m/s
same,speed of sound,"313.15 K, x1 = 1",1631.3 ± 1.6 m/s
same,mass density,"313.15 K, x1 = 0.0875",1030.2 ± 10 kg/m3
same,mass density,"313.15 K, x1 = 0.1774",1034.7 ± 10 kg/m3
same,mass density,"313.15 K, x1 = 0.2699",1040.9 ± 10 kg/m3
same,mass density,"313.15 K, x1 = 0.3651",1047.3 ± 10 kg/m3
same,mass density,"313.15 K, x1 = 0.4631",1055.4 ± 11 kg/m3
same,mass density,"313.15 K, x1 = 0.564",1062.1 ± 11 kg/m3
same,mass density,"313.15 K, x1 = 0.668",1070 ± 11 kg/m3
same,mass density,"313.15 K, x1 = 0.7753",1082.1 ± 11 kg/m3
same,mass density,"313.15 K, x1 = 0.8859",1094.9 ± 11 kg/m3
same,mass density,"313.15 K, x1 = 1",1109.5 ± 11 kg/m3
same,viscosity,"318.15 K, x1 = 0.0875",2.269 ± 0.019 mPa·s
same,viscosity,"318.15 K, x1 = 0.1774",2.313 ± 0.019 mPa·s
same,viscosity,"318.15 K, x1 = 0.2699",2.363 ± 0.019 mPa·s
same,viscosity,"318.15 K, x1 = 0.3651",2.414 ± 0.019 mPa·s
same,viscosity,"318.15 K, x1 = 0.4631",2.451 ± 0.019 mPa·s
same,viscosity,"318.15 K, x1 = 0.564",2.496 ± 0.019 mPa·s
same,viscosity,"318.15 K, x1 = 0.668",2.543 ± 0.02 mPa·s
same,viscosity,"318.15 K, x1 = 0.7753",2.589 ± 0.02 mPa·s
same,viscosity,"318.15 K, x1 = 0.8859",2.631 ± 0.02 mPa·s
same,viscosity,"318.15 K, x1 = 1",2.682 ± 0.02 mPa·s
same,speed of sound,"318.15 K, x1 = 0.0875",1449.6 ± 1.6 m/s
same,speed of sound,"318.15 K, x1 = 0.1774",1460.1 ± 1.6 m/s
same,speed of sound,"318.15 K, x1 = 0.2699",1470.9 ± 1.6 m/s
same,speed of sound,"318.15 K, x1 = 0.3651",1482.2 ± 1.6 m/s
same,speed of sound,"318.15 K, x1 = 0.4631",1493.9 ± 1.6 m/s
same,speed of sound,"318.15 K, x1 = 0.564",1511.3 ± 1.6 m/s
same,speed of sound,"318.15 K, x1 = 0.668",1524.3 ± 1.6 m/s
same,speed of sound,"318.15 K, x1 = 0.7753",1536.6 ± 1.6 m/s
same,speed of sound,"318.15 K, x1 = 0.8859",1549.5 ± 1.6 m/s
same,speed of sound,"318.15 K, x1 = 1",1557 ± 1.6 m/s
same,mass density,"318.15 K, x1 = 0.0875",1026.3 ± 10 kg/m3
same,mass density,"318.15 K, x1 = 0.1774",1031.9 ± 10 kg/m3
same,mass density,"318.15 K, x1 = 0.2699",1038.3 ± 10 kg/m3
same,mass density,"318.15 K, x1 = 0.3651",1044.3 ± 10 kg/m3
same,mass density,"318.15 K, x1 = 0.4631",1052.8 ± 10 kg/m3
same,mass density,"318.15 K, x1 = 0.564",1059.5 ± 11 kg/m3
same,mass density,"318.15 K, x1 = 0.668",1067.7 ± 11 kg/m3
same,mass density,"318.15 K, x1 = 0.7753",1078.8 ± 11 kg/m3
same,mass density,"318.15 K, x1 = 0.8859",1090.1 ± 11 kg/m3
same,mass density,"318.15 K, x1 = 1",1104.7 ± 11 kg/m3
Cc1ccc(O)cc1 [4-methylphenol] + COc1ccc(C=O)cc1,viscosity,"303.15 K, x2 = 0",9.54 ± 0.11 mPa·s
same,speed of sound,"303.15 K, x2 = 0",1468.4 ± 2.3 m/s
same,mass density,"303.15 K, x2 = 0",1026.5 ± 10 kg/m3
same,viscosity,"308.15 K, x2 = 0",8.119 ± 0.09 mPa·s
same,speed of sound,"308.15 K, x2 = 0",1455.8 ± 2.3 m/s
same,mass density,"308.15 K, x2 = 0",1022 ± 10 kg/m3
same,viscosity,"313.15 K, x2 = 0",6.741 ± 0.076 mPa·s
same,speed of sound,"313.15 K, x2 = 0",1443.7 ± 2.3 m/s
same,mass density,"313.15 K, x2 = 0",1018.1 ± 10 kg/m3
same,viscosity,"318.15 K, x2 = 0",5.469 ± 0.062 mPa·s
same,speed of sound,"318.15 K, x2 = 0",1432.7 ± 2.3 m/s
same,mass density,"318.15 K, x2 = 0",1013.9 ± 10 kg/m3
